Experimental data: patent publication US20210311020A1, “TREATMENT METHODS AND BIOMARKERS FOR MDM2 INHIBITORS” (ASCENTAGE PHARMA (SUZHOU) CO., LTD., priority 2019, published 2021)
Like-named read-outs stand apart in the source and are kept apart here.

Assays:
[1] = test system: LU-01-0582 PDX model (lung cancer); assay: Tumor growth inhibition in PDX model LU-01-0582; assay type: in vivo, BALB/c nude mice; details: LU-01-0582, Lung, MDM2amp/p53wt, ATM Wild-type; 200 mg/kg p.o. Q2D × 3W
Text: The objective of this study was to evaluate the in vivo anti-tumor efficacy of Compound C single agent in the MDM2 amplification (amp) subcutaneous PDX model in BALB/c nude mice.
The PDX models were originally established from a surgically resected clinical sample, and implanted in nude mice defined as passage 0 (P0). The next passage implanted from P0 tumor was defined as passage1 (P1), and so on during continual implantation in mice. The P3-P7 tumor tissue will be used for the study. A list of 10 PDX models and their corresponding test article is shown in the experimental design table (Table 1 and Table 2). […]
The major endpoint was to see if the tumor growth could be delayed or mice could be cured. Tumor size was measured twice weekly in two dimensions using a caliper, and the volume was expressed in mm^3 using the formula: V=0.5a×b^2 where a and b are the long and short diameters of the tumor, respectively. […] TGI was calculated for each group using the formula: TGI (%)=[1−(Ti−T0)/(Vi−V0)]×100; Ti is the average tumor volume of a treatment group on a given day, T0 is the average tumor volume of the treatment group on the day of treatment start, Vi is the average tumor volume of the vehicle control group on the same day with Ti, and V0 is the average tumor volume of the vehicle group on the day of treatment start. […]

[2] = test system: ZR-75-1 cells (Breast cancer); assay: In vitro cellular activity in ZR-75-1; assay type: cell-based; details: Homo sapiens, ZR-75-1, Breast cancer, P53 WT, ATM WT, ATR WT
Method: (§1) Activity of Compound C is tested in various cancer cell lines with indicated TP53, ATM and ATR genetic status. The activity (IC50 in uM) of Compound C in TP53^WT ATM^WT cell lines versus TP53^WTATR^MUT or TP53^WTATM^MUT cell lines was plotted (Figure. 4, MUT indicated mutant; WT indicated Wild-type).

[3] = test system: MKN-45 cells (Gastric cancer); assay: In vitro cellular activity in MKN-45; assay type: cell-based; details: Homo sapiens, MKN-45, Gastric cancer, P53 WT, ATM WT, ATR WT
Method: as §1

RKO cells (Colon cancer) = assay: In vitro cellular activity in RKO; assay type: cell-based; details: Homo sapiens, P53 WT, ATM WT, ATR WT
Method: as §1

[4] = test system: LNCap cells (Prostate cancer); assay: In vitro cellular activity in LNCap; assay type: cell-based; details: Homo sapiens, P53 WT, ATM p.Q912*, ATR p.S1493S, p.K1379N
Method: as §1

metastatic solid tumor = assay: Phase Ib/II dose escalation study with pembrolizumab, tumor response; assay type: in vivo, patients
Method: The Ib/II study consists of two parts, a dose escalation study and a Simon two-stage phase II study. In the dose escalation study, Compound C is combined with pembrolizumab of for the treatment of patients with metastatic solid tumor who failed their previous standard treatments. Four dose levels of Compound C are tested: 50, 100, 150, and 200 mg. Compound C is administrated orally every other day (QOD) for consecutive 2 weeks of a 21-day-cycle. Pembrolizumab is administrated at 200 mg IV on day1 of a 21-day-cycle. The primary objectives of the dose escalation study is to determine safety, tolerability, and determination of MTD and RP2D.

[5] = Test#1, read-out: IC50 (uM) Test#1
[6] = Test#2, read-out: IC50 (uM) Test#2

## CCN1[C@@H](C(=O)NC23CCC(C(=O)O)(CC2)CC3)[C@H](c2cccc(Cl)c2F)[C@]2(C(=O)Nc3cc(Cl)ccc32)C12CCCCC2 [Compound C]
[1]
  Ave TGI %: 9%
[2]; Avg, read-out: IC50 (uM) Avg
  IC50: 0.0232 µM
[2]; [5]
  IC50: 0.0109 µM
[2]; [6]
  IC50: 0.0354 µM
[3]; Avg, read-out: IC50 (uM) Avg
  IC50: 0.077 µM
[3]; [5]
  IC50: 0.097 µM
[3]; [6]
  IC50: 0.057 µM
RKO cells (Colon cancer); Avg, read-out: IC50 (uM) Avg
  IC50: 0.12 µM
RKO cells (Colon cancer); [5]
  IC50: 0.13 µM
RKO cells (Colon cancer); [6]
  IC50: 0.11 µM
[4]; Avg, read-out: IC50 (uM) Avg
  IC50: 0.0415 µM
[4]; [5]
  IC50: 0.044 µM
[4]; [6]
  IC50: 0.039 µM
Metastatic solid tumor; 100 mg cohort, in combination with pembrolizumab, after failed prior 6 lines therapies including 3 months' nivolumab, still ongoing
  tumor response, one patient with advanced NSCLC: confirmed partial regression (PR)
Metastatic solid tumor; 100 mg cohort, oral QOD 2 weeks of 21-day-cycle, in combination with pembrolizumab 200 mg IV day1, still ongoing
  tumor response, one patient with advanced ovarian cancer (ATM germline mutation): confirmed complete regression (CR)
Metastatic solid tumor; in combination with pembrolizumab
  anti-tumor effects in several tumor types: promising anti-tumor effects
Metastatic solid tumor; of 14 patients, cohorts 50, 100, 150, 200 mg, in combination with pembrolizumab
  patients who got SD after two cycle treatments: 5 patients
